How the values were obtained:
Uromyces appendiculatus = test: Example IX-D: in vivo preventive test on Uromyces appendiculatus (bean rust); conditions: 264 h, compounds of formula IX, 500 ppm of active ingredient, bean plants, preventive spray, evaluated 11 days after inoculation, read-out: efficacy
Method: Example IX-D: In Vivo Preventive Test on Uromyces Appendiculatus (Bean Rust)
(§1) The active ingredients are made soluble and homogenized in a mixture of Dimethyl sulfoxide/Acetone/Tween® 80 and then diluted in water to the desired concentration.
The young plants of bean are treated by spraying the active ingredient prepared as described above. Control plants are treated only with an aqueous solution of Acetone/Dimethyl sulfoxide/Tween® 80.
After 24 hours, the plants are contaminated by spraying the leaves with an aqueous suspension of Uromyces appendiculatus spores. The contaminated bean plants are incubated for 24 hours at 20° C. and at 100% relative humidity and then for 10 days at 20° C. and at 70-80% relative humidity.
(§2) The test is evaluated 11 days after the inoculation. 0% means an efficacy which corresponds to that of the control plants while an efficacy of 100% means that no disease is observed.
control plants while an efficacy of 100% means that no disease was observed.

Septoria tritici = test: Example IX-B: in vivo preventive test on Septoria tritici (leaf spot on wheat); conditions: Zymoseptoria tritici, 576 h; compounds of formula IX; 500 ppm of active ingredient; wheat plants, preventive spray; evaluated 24 days after inoculation; read-out: efficacy
Method: Example IX-B: In Vivo Preventive Test on Septoria Tritici (Leaf Spot on Wheat)
as §1
(§3) The young plants of wheat are treated by spraying the active ingredient prepared as described above. Control plants are treated only with an aqueous solution of Acetone/Dimethyl sulfoxide/Tween® 80.
After 24 hours, the plants are contaminated by spraying the leaves with an aqueous suspension of Septoria tritici spores. The contaminated wheat plants are incubated for 72 hours at 18° C. and at 100% relative humidity and then for 21 days at 20° C. and at 90% relative humidity.
The test is evaluated 24 days after the inoculation. 0% means an efficacy which corresponds to that of the control plants while an efficacy of 100% means that no disease is observed.

Puccinia recondita = test: Example IX-A: in vivo preventive test on Puccinia recondita (brown rust on wheat); conditions: 264 h, compounds of formula IX, 500 ppm of active ingredient, wheat plants, preventive spray, evaluated 11 days after inoculation, read-out: efficacy
Method: Example IX-A: In Vivo Preventive Test on Puccinia Recondita (Brown Rust on Wheat)
as §1, §3
After 24 hours, the plants are contaminated by spraying the leaves with an aqueous suspension of Puccinia recondita spores. The contaminated wheat plants are incubated for 24 hours at 20° C. and at 100% relative humidity and then for 10 days at 20° C. and at 70-80% relative humidity.
as §2

Sphaerotheca fuliginea = test: Example IX-C: in vivo preventive test on Sphaerotheca fuliginea (powdery mildew on cucurbits); conditions: Podosphaera fuliginea, 360 h; compounds of formula IX; 500 ppm of active ingredient; gherkin plants, preventive spray; evaluated 15 days after inoculation; read-out: efficacy
Method: Example IX-C: In Vivo Preventive Test on Sphaerotheca Fuliginea (Powdery Mildew on Cucurbits)
as §1
The young plants of gherkin are treated by spraying the active ingredient prepared as described above. Control plants are treated only with an aqueous solution of Acetone/Dimethyl sulfoxide/Tween® 80.
After 24 hours, the plants are contaminated by spraying the leaves with an aqueous suspension of Sphaerotheca fuliginea spores. The contaminated gherkin plants are incubated for 72 hours at 18° C. and at 100% relative humidity and then for 12 days at 20° C. and at 70-80% relative humidity.
The test is evaluated 15 days after the inoculation. 0% means an efficacy which corresponds to that of the control plants while an efficacy of 100% means that no disease is observed.

[1] = Log P by HPLC on reversed phase columns (EEC directive 79/831 Annex V.A8; methods [a], [b], [c]); type: physicochemical; conditions: reversed phase HPLC column; method [a]: LC-UV, acidic range, 0.1% formic acid in water and acetonitrile as eluent (linear gradient from 10% to 95% acetonitrile)
How it was run: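 Reversed-phase HPLC with LC-UV detection, 10→95% acetonitrile linear gradient; aqueous eluent 0.1% formic acid [a], 0.001 M ammonium acetate, neutral [b], or 0.1% phosphoric acid [c]. Calibrated against C3–C16 alkan-2-ones of known Log P by retention-time linear interpolation; multiple values within a method separated by "+".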

Row | Compound | pest or weed control at 500 ppm (Uromyces appendiculatus) | pest or weed control at 500 ppm (Septoria tritici) | pest or weed control at 500 ppm (Puccinia recondita) | pest or weed control at 500 ppm (Sphaerotheca fuliginea) | chromatographic logP [1]
1 | O=C(Cn1cncc1Cl)c1ccc(Oc2ccc(Cl)cc2)cc1Br [IX-34] | 90 to 100% | 90 to 100% | 80 to 89% | 90 to 100% | 3.15
2 | O=C(Cn1cncc1Br)c1ccc(Oc2ccc(Br)cc2)cc1Br [IX-36] | 90 to 100% | 90 to 100% | 80 to 89% | 90 to 100% | 3.16
3 | O=C(Cn1cncc1Cl)c1ccc(Oc2ccc(Br)cc2)cc1Br [IX-37] | 90 to 100% | 90 to 100% | 80 to 89% | 90 to 100% | 3.22
4 | O=C(Cn1cncc1Cl)c1ccc(Oc2ccc(I)cc2)cc1Br [IX-38] | 90 to 100% | 90 to 100% | 90 to 100% | 90 to 100% | 3.35
5 | O=C(Cn1cncc1Br)c1ccc(Oc2ccc(Br)cc2)cc1Cl [IX-39, 1-[4-(4-bromophenoxy)-2-chloro-phenyl]-2-(5-bromoimidazol-1-yl)ethanone] | 90 to 100% | 90 to 100% | 90 to 100% | 90 to 100% | 3.1
6 | O=C(Cn1cncc1Br)c1ccc(Oc2ccc(I)cc2)cc1Br [IX-42] | 90 to 100% | 90 to 100% | 80 to 89% | 90 to 100% | 3.55
7 | O=C(Cn1cncc1Cl)c1cnc(Oc2ccc(Cl)cc2)cc1C(F)(F)F [IX-43] | 90 to 100% | 90 to 100% | 80 to 89% | 90 to 100% | 3.09
8 | O=C(Cn1cncc1Cl)c1ccc(Oc2ccc(Cl)cc2)cc1F [IX-45] | 70 to 79% | 90 to 100% | 90 to 100% | 90 to 100% | 2.75
9 | O=C(Cn1cncc1Cl)c1ccc(Oc2ccc(I)cc2)cc1F [IX-47] | 90 to 100% | 90 to 100% | 90 to 100% | 90 to 100% | 3.19
10 | O=C(Cn1cncc1Cl)c1cnc(Oc2ccc(Cl)cc2)cc1Br [IX-50] | 90 to 100% | 90 to 100% | 80 to 89% | 90 to 100% | 2.82
11 | N#Cc1cncn1CC(=O)c1ccc(Oc2ccc(Cl)cc2)cc1C(F)(F)F [IX-54] | 70 to 79% | 90 to 100% | 90 to 100% | 90 to 100% | 3.55
12 | O=C(Cn1cncc1C(F)(F)F)c1ccc(Oc2ccc(Cl)cc2)cc1Cl [IX-57] | 80 to 89% | 90 to 100% | 90 to 100% | 90 to 100% | 4.03
13 | N#Cc1cncn1CC(=O)c1ccc(Oc2ccc(Br)cc2)cc1Cl [IX-58, 1-[4-(4-bromophenoxy)-2-chloro-phenyl]-2-(5-cyanoimidazol-1-yl)ethanone] | 90 to 100% | 90 to 100% | 90 to 100% | 90 to 100% | 3.55
14 | N#Cc1cncn1CC(=O)c1ccc(Oc2ccc(Br)cc2)cc1C(F)(F)F [IX-59] | 90 to 100% | 90 to 100% | 90 to 100% | 90 to 100% | 3.65
15 | N#Cc1cncn1CC(=O)c1ccc(Oc2ccc(Cl)nc2)cc1Cl [IX-60] | 90 to 100% | 90 to 100% | 80 to 89% | 90 to 100% | 2.62
16 | N#Cc1cncn1CC(=O)c1ccc(Oc2ccc(Cl)cc2)cc1Br [IX-61] | 90 to 100% | 80 to 89% | 90 to 100% | 90 to 100% | 3.53
17 | N#Cc1cncn1CC(=O)c1ccc(Oc2ccc(Br)cc2)cc1F [IX-62] | 90 to 100% | 90 to 100% | 90 to 100% | 90 to 100% | 3.33
18 | N#Cc1cncn1CC(=O)c1ccc(Oc2ccc(I)cc2)cc1F [IX-63] | 90 to 100% | 90 to 100% | 90 to 100% | 90 to 100% | 3.48
19 | N#Cc1cncn1CC(=O)c1ccc(Oc2ccc(Cl)cc2)cc1F [IX-64] | 90 to 100% | 90 to 100% | 90 to 100% | 90 to 100% | 3.27
20 | O=C(Cn1cncc1F)c1ccc(Oc2ccc(Cl)cc2)cc1Cl [IX-65] | 90 to 100% | 90 to 100% | 90 to 100% | 90 to 100% | 2.52
21 | N#Cc1cncn1CC(=O)c1ccc(Oc2ccc(I)cc2)cc1Br [IX-66] | 90 to 100% | 90 to 100% | 90 to 100% | 90 to 100% | 3.8
22 | N#Cc1cncn1CC(=O)c1ccc(Oc2ccc(Br)cc2)cc1Br [IX-67] | 90 to 100% | 90 to 100% | 90 to 100% | 90 to 100% | 3.62
23 | N#Cc1cncn1CC(=O)c1ccc(Oc2ccc(I)cc2)cc1Cl [IX-68] | 90 to 100% | 90 to 100% | 90 to 100% | 90 to 100% | 3.71
24 | N#Cc1cncn1CC(=O)c1ccc(Oc2ccc(C(F)(F)F)cc2)cc1C(F)(F)F [IX-69] | 90 to 100% | 90 to 100% | 90 to 100% | 90 to 100% | 3.69
25 | N#Cc1cncn1CC(=O)c1ccc(Oc2ccc(S(F)(F)(F)(F)F)cc2)nc1Cl [IX-74] | 90 to 100% | 90 to 100% | 90 to 100% | 90 to 100% | 3.42
26 | N#Cc1cncn1CC(=O)c1ccc(Oc2ccc(Cl)cc2)cc1C(F)F [IX-75] | 90 to 100% | 90 to 100% | 90 to 100% | 90 to 100% | 3.39
27 | N#Cc1cncn1CC(=O)c1ccc(Oc2ccc(Br)cn2)cc1Cl [IX-77] | 90 to 100% | 90 to 100% | 90 to 100% | 90 to 100% | 2.94
28 | O=C(Cn1cncc1Cl)c1ccc(Oc2ccc(Br)nc2)cc1Cl [IX-78] | 90 to 100% | 90 to 100% | 80 to 89% | 90 to 100% | 2.32
29 | O=C(Cn1cncc1Cl)c1ccc(Oc2ccc(Br)cn2)cc1Cl [IX-79] | 90 to 100% | 90 to 100% | 80 to 89% | 90 to 100% | 2.59
